Test results taken from US20260199294A1, “PEPTIDE DRUG CONJUGATES” (Oncopeptides Innovation AB, priority 2022, published 2026).

Key:
[1] = tested on: hPBMC (Human Peripheral blood mononuclear cells); test: In vitro cytotoxicity (CellTiter-Glo, 72 h) in hPBMC; format: cell-based; details: stimulated with PHA-M and IL-2
Protocol: (§1) All cells were cultivated in RPMI medium 1640 (IX). All media was supplemented with […] penicillin/streptomycin, 10% heat inactivated FBS, 0.1 mM Sodium Pyruvate, 1×MEM NEAA (ThermoFisher) and 1 mM HEPES. The DERL-2 cells had higher FBS (20%) and 40 ng/mL IL-2 was added. hPBMCs were thawed and allowed to acclimatise overnight and then stimulated with 10 µg/mL PHA-M and 40 ng/mL IL-2 for 4 hours before being exposed to test compounds. All cells, except for hPBMCs, were grown to reach log phase before being exposed to the test compounds.
(§2) Test compounds were dissolved in 100% DMSO and added to a 384 assay plate. Additional DMSO was added to maintain the same final DMSO concentration (0.2%) in all wells. 25 μL cell suspension with a concentration of 100000 cells/mL was added to each well. The cells were cultured in a CO2 incubator at 37° C. for 72 h. Plates were equilibrated to room temperature for 30 minutes before adding 20 μL CellTiter-Glo® 2.0 (Promega) reagent to all wells. The plate was then allowed to stabilize for 20 minutes before recording the luminescence (Em filter 700 nm) in an Envision plate reader.

[2] = tested on: mitochondrial DNA (mtDNA) prepared from MM.1S cells; test: Direct DNA damage, PCR amplification with mtDNA primers; format: biochemical, human; details: 0.25 μM compound, 30 minutes at 37° C.
Protocol: (§3) Method: DNA was prepared from MM.1S cells by QIAGEN genomic tip 20/G according to protocol described in Furda et al., Methods Mol Biol, 2012. 1 μg of DNA was treated with 0.25 μM compound for 30 minutes at 37° C. DMSO was used as control treatment. 20 ng of the treated DNA was PCR amplified using Phusion Hot Start II High Fidelity PCR Master Mix (Thermo Scientific) and primers directed to either HPRT or primers directed to mitochondrial DNA (mtDNA) was used, generating 10.4 or 8.9 kb fragments, respectively. The PCR reactions were separated on a 1% agarose gel and visualized by ChemiDoc™ MP Imaging System (BioRad). Example compounds 1, 2 and 38 were investigated, as were compounds 18 and 20, which are metabolites of compound 1. They were compared with bendamustine, melphalan and DMSO control. The results for compounds 1, 2, 18 and 20 with the HPRT primers are shown in FIG. 4(A); the results with the mtDNA primers are shown in FIG. 4(B).

[3] = tested on: nuclear DNA (HPRT) prepared from MM.1S cells; test: Direct DNA damage, PCR amplification with HPRT primers; format: biochemical, human; details: 0.25 μM compound, 30 minutes at 37° C.
Protocol: as §3

[4] = tested on: BJ Fibroblasts (normal cells); test: In vitro cytotoxicity (CellTiter-Glo, 72 h) in BJ fibroblasts; format: cell-based, human
Protocol: as §1, §2

MM.1S cells [5] = test: DNA fragmentation, APO-BrdU TUNEL assay by FACS; format: cell-based, human
Protocol: Method: 1×10^6 MM.1S cells (CRL-2974, ATCC) were treated with Example compound 1 or Bendamustine at 0.006, 0.06, 0.6 or 6 μM for 24 h. After incubation, the cells were washed with PBS (10010-015, Gibco), fixed in Flow Cytometry Fixation Buffer (FC004, R&D Systems) for 10 min and stored in 70% ethanol at −20° C. overnight. The deoxythymidine analog (BrdUTP) was present in the experiment and served to label the DNA break sites. Next day, the cells were washed and stained using an APO-BrdU™ TUNEL Assay Kit, according to the manufacturer's protocol (A23210, Invitrogen), followed by the analysis using BD FACSCanto™ II. The percentage ofTUNEL positive cells indicates the percentage of cells with fragmented DNA.

MM.1S cells [6] = test: Cellular retention/efflux: intracellular and extracellular concentrations by LC-MS/MS; format: in vitro ADME, human; details: MM.1S cells, 5, 15 and 60 min; metabolites measured after treatment with the parent Example compound
Protocol: Methods: MM.1S cells at 2×10^6 cells/mL were seeded at 250 μL per well in a 96-well plate. Cells were incubated in the presence of a test compound for 5, 15, and 60 min before pelleting cells by centrifugation at +4° C. for 5 min. Cell media was immediately harvested to a second plate and stored at −80° C. until further analysis. Pelleted cells were washed once with ice cold PBS before storage at −80° C. until further analysis.
Cells were lysed and protein in the media were precipitated using acetonitrile dimethylformamide, 9:1 containing internal standard. Samples were centrifuged and the supernatant was analyzed with LC-MS/MS (ACQUITY UPLC-Xevo TQ-S micro) to determine compound concentration.
Example compound 1, bendamustine and melphalan were used as test compounds.
Method: Method described in Biological example 3.
Example compounds 1, 2, 3, 4, 6, 7 and 10 were investigated. Intracellular metabolites are formed from all compounds tested. The compound used for cell treatment was metabolised to the ester-hydrolysed compound (here called Metabolite A) and to the amide-hydrolysed compound (called Metabolite B). The example compound structures and the structures of the two metabolites for the respective compounds were as shown in Table 4. The Metabolites B formed under the conditions tested were compounds with structure as Examples 17 and 18: […]

SMILES | DNA damage on mitochondrial DNA (8.9 kb PCR band) [2] | DNA damage on nuclear DNA (HPRT 10.4 kb PCR band) [3] | IC50 [4] | extracellular concentration (media) (MM.1S cells [6]) | intracellular concentration (MM.1S cells [6]) | also measured
CCOC(=O)[C@H](Cc1nc2cc(N(CCCl)CCCl)ccc2n1C)NC(=O)[C@@H](N)CC(C)C [Example compound 10, Ethyl (2S)-2-[[(2S)-2-amino-4-methyl-pentanoyl]amino]-3-[5-[bis(2-chloroethyl)amino]-1-methyl-benzimidazol-2-yl]propanoate] | – | – | – | – | – | IC50 [1]: 26.4 nM
CCOC(=O)[C@@H](N)CCc1nc2cc(N(CCCl)CCCl)ccc2n1C.Cl.Cl [Example compound 38, Ethyl (2S)-2-amino-4-[5-[bis(2-chloroethyl)amino]-1-methyl-benzimidazol-2-yl]butanoate] | effectively damaged | effectively damaged | – | – | – | –
CCOC(=O)[C@H](Cc1ccc(F)cc1)NC(=O)[C@@H](N)CCc1nc2cc(N(CCCl)CCCl)ccc2n1C [Example compound 2, Ethyl (2S)-2-[[(2S)-2-amino-4-[5-[bis(2-chloroethyl)amino]-1-methyl-benzimidazol-2-yl]butanoyl]amino]-3-(4-fluorophenyl)propanoate] | strong DNA damaging effect | strong DNA damaging effect | – | – | – | IC50 [1]: 7.5 nM
CC(C)C[C@H](NC(=O)[C@@H](N)CCc1nc2cc(N(CCCl)CCCl)ccc2n1C)C(=O)N(C)C [Example compound 30, (2S)-2-[[(2S)-2-Amino-4-[5-[bis(2-chloroethyl)amino]-1-methyl-benzimidazol-2-yl]butanoyl]amino]-N,N,4-trimethyl-pentanamide] | – | – | > 2000 nM | – | – | –
Cn1c(CCCC(=O)O)nc2cc(N(CCCl)CCCl)ccc21 [Bendamustine, reference compound] | no or very minor effect on DNA damage | no or very minor effect on DNA damage | – | quite high and decreased over time | Low intracellular concentrations could be detected of bendamustine and the level decreases over time | cells with DNA breaks (MM.1S cells [5]; 0.6 μM for 24 h): not the case; dose response effect on DNA damage (TUNEL positive cells) (MM.1S cells [5]; 0.006, 0.06, 0.6 or 6 μM for 24 h): no obvious effect
Cl.Cl.Cn1c(CC[C@H](N)C(=O)O)nc2cc(N(CCCl)CCCl)ccc21 [Example compound 18, (S)-2-amino-4-(5-(bis(2-chloroethyl)amino)-1-methyl-1H-benzo[d]imidazol-2-yl)butanoic acid] | effectively damaged | effectively damaged | – | low levels of it are found in the media outside the cells | rapidly formed inside the cells | –
CCOC(=O)[C@H](Cc1ccc(F)cc1)NC(=O)[C@H](CCc1nc2cc(N(CCCl)CCCl)ccc2n1C)NC(C)=O [Example compound 34, Ethyl (2S)-2-[[(2S)-2-acetamido-4-[5-[bis(2-chloroethyl)amino]-1-methyl-benzimidazol-2-yl]butanoyl]amino]-3-(4-fluorophenyl)propanoate] | – | – | > 2000 nM | – | – | –
CCOC(=O)[C@H](CC(C)C)NC(=O)[C@@H](N)CCc1nc2cc(N(CCCl)CCCl)ccc2n1-c1ccccc1 [Example compound 13, Ethyl (2S)-2-[[(2S)-2-amino-4-[5-[bis(2-chloroethyl)amino]-1-phenyl-benzimidazol-2-yl]butanoyl]amino]-4-methyl-pentanoate] | – | – | > 2000 nM | – | – | –
N[C@@H](Cc1ccc(N(CCCl)CCCl)cc1)C(=O)O [Melphalan, reference compound] | no or very minor effect on DNA damage | no or very minor effect on DNA damage | – | high and constant throughout the experiment | low intracellular concentration | –
CC(C)C[C@H](NC(=O)[C@@H](N)CCc1nc2cc(N(CCCl)CCCl)ccc2n1C)C(=O)O [Example compound 20, (2S)-2-[[(2S)-2-amino-4-[5-[bis(2-chloroethyl)amino]-1-methyl-benzimidazol-2-yl]butanoyl]amino]-4-methyl-pentanoic acid] | DNA damaging effect but to a lesser degree compared to Example compounds 1, 2 and 18, but greater than Bendamustine or Melphalan | DNA damaging effect but to a lesser degree compared to Example compounds 1, 2 and 18, but greater than Bendamustine or Melphalan | – | – | – | –
